“And” between values parts separate entries of the source, which are not always exact repeats. Equal entries are not always repeated. Where two headings read alike, the source gives them in different places.
Columns and labels:
[1] = system: P. falciparum Dd2-2D4; assay: P. falciparum asexual blood stage (ABS) growth assay, SYBR Green, 72 h, wild-type parasites; type: cell-based, Plasmodium falciparum; settings: Plasmodium falciparum
[2] = system: halofuginone-induced P. falciparum (elevated proline homeostasis); assay: P. falciparum ABS growth assay, SYBR Green, 72 h, halofuginone-induced parasites; type: cell-based, Plasmodium falciparum; settings: Plasmodium falciparum, DD2; halofuginone-induced ABS parasites, 72 h; read-out: Dd2 (EC50 [nM]) Halofuginone-induced
Text: (§1) Parasites were maintained under standard culture conditions as described previously[56],[57]. […] The P. falciparum Dd2 cell lines used in this study (Dd2-2D4, halofuginone-induced, and HFGR-I) have previously undergone whole genome sequencing in our labs. They were also routinely assayed and EC50 values determined using the ABS growth assay (see below) with a panel of standard antimalarial compounds, including halofuginone which has differential activity for the three Dd2 lines used in these experiments. Data were cross-referenced for consistency with literature reported values and data previously acquired in the lab.
(§2) This assay was performed as previously described. In short, P. falciparum erythrocytic-stage parasites at 1% parasitemia and 1% hematocrit in RPMI + 0.5% Albumax were seeded at 40 μL/well in 384-well plates with test compounds in triplicate, dose-response format with 10 μM dihydroartemisinin as a kill-control and blank (no compound) wells as a growth-control. […] After 72 h, growth was quantified by measuring fluorescence (Molecular Devices SpectraMax iD5) following SYBR Green 1 staining. Data were analyzed in Excel and plotted in PRISM (V. 8.4.3–9.1.0, GraphPad).

[3] = system: HFGR-I P. falciparum (elevated proline homeostasis and PfcProRS^L482H); assay: P. falciparum ABS growth assay, SYBR Green, 72 h, HFGR-I parasites; type: cell-based, Plasmodium falciparum; settings: Plasmodium falciparum, DD2; HFGR-I ABS parasites, 72 h; read-out: Dd2 (EC50 [nM]) HFGR-I
Text: as §1, §2

[4] = molecular target: T1, PfcProRS (Plasmodium falciparum, UniProt Q8I5R7); type: binding; settings: for Normalized response, dose-response replicates (SI Fig 14): replicates 1-3, listed as Glyburide (28)
T1 construct: made in house; host or cells: E. coli SoluBL-21
T1 sequence (Q8I5R7 249-746): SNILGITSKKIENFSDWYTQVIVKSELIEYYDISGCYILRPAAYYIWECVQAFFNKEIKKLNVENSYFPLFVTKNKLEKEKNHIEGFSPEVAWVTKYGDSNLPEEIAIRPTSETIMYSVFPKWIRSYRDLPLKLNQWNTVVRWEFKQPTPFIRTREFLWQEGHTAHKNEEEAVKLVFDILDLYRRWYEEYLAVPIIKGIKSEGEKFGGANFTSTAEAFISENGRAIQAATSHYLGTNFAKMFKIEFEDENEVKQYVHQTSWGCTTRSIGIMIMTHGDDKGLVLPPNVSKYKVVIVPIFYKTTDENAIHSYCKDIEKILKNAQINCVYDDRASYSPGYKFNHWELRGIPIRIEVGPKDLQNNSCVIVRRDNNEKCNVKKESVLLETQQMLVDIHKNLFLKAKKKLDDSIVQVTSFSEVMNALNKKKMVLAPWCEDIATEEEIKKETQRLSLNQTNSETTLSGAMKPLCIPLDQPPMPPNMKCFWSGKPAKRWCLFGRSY

[5] = molecular target: HsProRS (Homo sapiens, UniProt P07814); assay: TR-FRET ligand displacement assay with tracer MAT379 (CoraFluor-1-Halo and anti-His6 antibody formats); type: binding; parameters: made in house; host or cells: E. coli SoluBL-21; settings: for normalized TR-FRET signal (dose-response replicates): SI Fig 15, listed as Glyburide (28)
Chain of HsProRS (P07814 996-1512): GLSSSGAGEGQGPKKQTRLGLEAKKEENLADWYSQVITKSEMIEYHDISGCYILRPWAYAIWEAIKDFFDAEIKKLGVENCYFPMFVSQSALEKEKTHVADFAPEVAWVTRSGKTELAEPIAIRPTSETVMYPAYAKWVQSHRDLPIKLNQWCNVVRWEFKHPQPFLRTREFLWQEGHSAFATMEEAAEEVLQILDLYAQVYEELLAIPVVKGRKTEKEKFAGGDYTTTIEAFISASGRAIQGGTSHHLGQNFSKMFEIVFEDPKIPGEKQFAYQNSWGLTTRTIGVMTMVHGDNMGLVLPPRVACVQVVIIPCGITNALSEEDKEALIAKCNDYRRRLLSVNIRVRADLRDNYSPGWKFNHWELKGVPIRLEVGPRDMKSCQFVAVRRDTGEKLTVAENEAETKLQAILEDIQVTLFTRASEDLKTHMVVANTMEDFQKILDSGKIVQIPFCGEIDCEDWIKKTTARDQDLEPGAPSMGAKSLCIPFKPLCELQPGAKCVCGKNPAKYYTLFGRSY

## COc1ccc(Cl)cc1C(=O)NCCc1ccc(S(=O)(=O)NC(=O)NC2CCCCC2)cc1 [Glyburide, reference compound]
[1]; DD2, SI Fig 16b, values on -log scale, read-out: ABS - Dd2-2D4 (converted)
  EC50: 75700 nM
[1]; wild-type Dd2-2D4 ABS parasites, 72 h, read-out: Dd2 (EC50 [nM]) wt
  EC50: 75600 nM
[2]
  EC50: 73600 nM
[3]
  EC50: 69600 nM
[4]
  binding mode with respect to substrates (ATP, proline): ATP- and proline-competitive
  selectivity for PfcProRS over HsProRS: > 30 fold
[4]; Log[inhibitor] (M) -4.000
  Normalized response, dose-response replicates (SI Fig 14): 9.02E-01 and 9.90E-01 and 8.86E-01
[4]; Log[inhibitor] (M) -4.301
  Normalized response, dose-response replicates (SI Fig 14): 1.05E+00 and 1.04E+00 and 1.16E+00
[4]; Log[inhibitor] (M) -4.601
  Normalized response, dose-response replicates (SI Fig 14): 1.10E+00 and 1.11E+00 and 1.09E+00
[4]; Log[inhibitor] (M) -4.904
  Normalized response, dose-response replicates (SI Fig 14): 1.18E+00 and 1.08E+00 and 1.07E+00
[4]; Log[inhibitor] (M) -5.208
  Normalized response, dose-response replicates (SI Fig 14): 9.30E-01 and 1.21E+00 and 1.10E+00
[4]; Log[inhibitor] (M) -5.509
  Normalized response, dose-response replicates (SI Fig 14): 1.06E+00 and 9.98E-01 and 1.05E+00
[4]; Log[inhibitor] (M) -5.796
  Normalized response, dose-response replicates (SI Fig 14): 9.95E-01 and 9.65E-01 and 1.02E+00
[4]; Log[inhibitor] (M) -6.108
  Normalized response, dose-response replicates (SI Fig 14): 9.29E-01 and 8.37E-01 and 1.06E+00
[4]; Log[inhibitor] (M) -6.409
  Normalized response, dose-response replicates (SI Fig 14): 9.49E-01 and 9.10E-01 and 8.70E-01
[4]; Log[inhibitor] (M) -6.710
  Normalized response, dose-response replicates (SI Fig 14): 9.85E-01 and 9.81E-01 and 9.34E-01
[4]; Log[inhibitor] (M) -7.000
  Normalized response, dose-response replicates (SI Fig 14): 1.05E+00 (2×) and 1.07E+00
[4]; Log[inhibitor] (M) -7.301
  Normalized response, dose-response replicates (SI Fig 14): 1.02E+00 and 9.36E-01 and 1.04E+00
[4]; Log[inhibitor] (M) -7.602
  Normalized response, dose-response replicates (SI Fig 14): 8.75E-01 and 9.05E-01 and 1.01E+00
[4]; Log[inhibitor] (M) -8.000
  Normalized response, dose-response replicates (SI Fig 14): 1.03E+00 and 1.08E+00 and 9.17E-01
[4]; Log[inhibitor] (M) -8.301
  Normalized response, dose-response replicates (SI Fig 14): 1.03E+00 and 8.92E-01 and 1.05E+00
[5]; + 100 μM proline, 100 μM
  HsProRS % signal at 100 μM, + 100 μM proline: 92.6%
[5]; HsProRS (KD [nM]) + ATP, 500 μM ATP, 250 nM MAT379
  Kd: 30900 nM
[5]; HsProRS (KD [nM]) + proline, 100 μM proline, 250 nM MAT379
  Kd: > 50000 nM
[5]; HsProRS (KD [nM]) −, absence of substrates, 250 nM MAT379
  Kd: 73900 nM
[5]; HsProRS KD + 100 μM proline, bound, + 100 μM proline, bound given in μM
  Kd: > 50900 nM
[5]; Log[inhibitor] (M) -3.99976
  normalized TR-FRET signal (dose-response replicates): 4.60E-01 and 4.45E-01 and 5.24E-01
[5]; Log[inhibitor] (M) -4.3009
  normalized TR-FRET signal (dose-response replicates): 6.36E-01 and 5.89E-01 and 6.44E-01
[5]; Log[inhibitor] (M) -4.60199
  normalized TR-FRET signal (dose-response replicates): 8.28E-01 and 7.19E-01 and 8.15E-01
[5]; Log[inhibitor] (M) -4.90248
  normalized TR-FRET signal (dose-response replicates): 9.22E-01 and 9.13E-01 and 9.32E-01
[5]; Log[inhibitor] (M) -5.20323
  normalized TR-FRET signal (dose-response replicates): 1.00E+00 and 9.33E-01 (2×)
[5]; Log[inhibitor] (M) -5.51347
  normalized TR-FRET signal (dose-response replicates): 9.75E-01 (2×) and 1.00E+00
[5]; Log[inhibitor] (M) -5.79595
  normalized TR-FRET signal (dose-response replicates): 7.95E-01 and 8.60E-01 and 9.98E-01
[5]; Log[inhibitor] (M) -6.10794
  normalized TR-FRET signal (dose-response replicates): 8.65E-01 and 8.44E-01 and 8.55E-01
[5]; Log[inhibitor] (M) -6.40526
  normalized TR-FRET signal (dose-response replicates): 9.62E-01 and 9.85E-01 and 1.00E+00
[5]; Log[inhibitor] (M) -6.7137
  normalized TR-FRET signal (dose-response replicates): 9.69E-01 and 9.06E-01 and 9.96E-01
[5]; Log[inhibitor] (M) -7
  normalized TR-FRET signal (dose-response replicates): 8.09E-01 and 8.06E-01 and 9.15E-01
[5]; Log[inhibitor] (M) -7.331
  normalized TR-FRET signal (dose-response replicates): 8.96E-01 and 8.92E-01 and 9.69E-01
[5]; Log[inhibitor] (M) -7.57403
  normalized TR-FRET signal (dose-response replicates): 9.06E-01 and 7.74E-01 and 8.73E-01
[5]; Log[inhibitor] (M) -7.87506
  normalized TR-FRET signal (dose-response replicates): 6.90E-01 and 8.76E-01 and 8.40E-01
[5]; Log[inhibitor] (M) -8.17609
  normalized TR-FRET signal (dose-response replicates): 9.01E-01 and 9.35E-01 and 9.12E-01

Reference: paper PMC9403976, “Elucidating the path to Plasmodium prolyl-tRNA synthetase inhibitors that overcome halofuginone resistance” (Nature Communications, 2022)
